# pIC50: −log10 of the molar value. “And” between values parts separate entries of the source, which are not always exact repeats. Identical values can stand only once. Counter-ions that a name gives are not always drawn. Like-named read-outs stand apart in the source and are kept apart here.
# Assays:
# [1] = molecular target: Recombinant MAPKAPK2 (Homo sapiens, UniProt P49137); test: Determination of MK-2 IC50 (HSP-peptide phosphorylation, anion exchange resin capture assay)
# Procedure: The phosphorylation of HSP-peptide ([sequence]) by MAPKAPK2 was measured using an anion exchange resin capture assay method. […] The reaction was terminated and [γ^33P]ATP was removed from solution by the addition of 150 μl of AG 1×8 ion exchange resin in 900 mM sodium formate pH 3.0. A 50 μl aliquot of head volume was removed from the quenched reaction mixture and added to a 96-well plate, 150 μl of Microscint-40 (Packard) was added and the amount of phosphorylated-peptide was determined. Allow the Microscint to sit in the plates for 60 minutes prior to counting.
# Compounds are evaluated as potential inhibitors of the MK2 kinase by measuring their effects on MK2 phosphorylation of the peptide substrate. Compounds may be screened initially at two concentrations prior to determination of IC50 values. Screening results are expressed as percent inhibition at the concentrations of compound tested. For IC50 value determinations, compounds are tested at six concentrations in ten-fold serial dilutions with each concentration tested in triplicate. Results are expressed as IC50 values in micromolar. The assay is performed at a final concentration of 2% DMSO.
# [2] = test system: TNFα release, U937 cells; test: U937 Cell TNFα Release Assay (LPS-stimulated, TNFα ELISA); assay type: cell-based, human; settings: additional values are replicate IC50 experiments, read-out: TNF Release Assay Avg. IC50
# Procedure: U937 Cell TNFα Release Assay
# Differentiation of U937 to monocytic/macrophage-like cells is induced by the addition of phorboll2-myristate 13-acetate (Sigma) at final concentration of 20 ng/ml to a culture of U937 cells at ˜0.5 million cells/ml and incubated for 24 hrs. The cells are centrifuged, washed with PBS and resuspended in fresh media without PMA and incubated for 24 hrs. Cells adherent to the culture flask are harvested by scraping, centrifugation, and resuspended in fresh media to 2 million cells/ml, and 0.2 ml is aliquoted to each of 96 wells in flat-bottom plate. Cells are then incubated for an additional 24 hrs to allow for recovery. The media is removed from the cells, and 0.1 ml of fresh media is added per well. 0.05 ml of serially diluted compound or control vehicle (Media with DMSO) is added to the cells. […] Cells are incubated at 37° C. for 4 hrs. After 4 hrs incubation, supernatants are harvest and assayed by ELISA for the presence of TNFα.
# Coating solution was aspirated the following day and wells were blocked with 1 mg/ml gelatin in PBS (plus 1×thimerasol) for 2 days at 4° C. Prior to using, wells were washed 3× with wash buffer (PBS with 0.05% Tween). Cultured media samples were diluted in EIA buffer (5 mg/ml bovine γ-globulin, 1 mg/ml gelatin, 1 ml/l Tween-20, 1 mg/ml thimerasol in PBS), added to wells (0.1 ml/well) in triplicate and allowed to incubate for 1.5 hr at 37° C. in a humidified chamber. […] After final washing, plates were developed with peroxidase-ABTS solution (Kirkegaard/Perry #50-66-01, 0.1 ml/well). […] TNF levels were quantitated from a recombinant human TNFα (R&D Systems #210-TA-010) standard curve using a quadratic parameter fit generated by SoftMaxPRO software. ELISA sensitivity was approximately 30 pg TNF/ml. IC50 values for compounds were generated using BioAssay Solver.
# [3] = test system: murine model of endotoxin-induced shock; settings: cited from earlier work
# [4] = test system: mouse collagen-induced arthritis; settings: in vivo; cited from earlier work
# [5] = test system: rat adjuvant arthritis; settings: in vivo; cited from earlier work
# [6] = read-out: in vitro MK-2 inhibition IC50
# [7] = Homo sapiens, U-937, U937 cells
# Sequence of Recombinant MAPKAPK2 (P49137 whole entry, species assumed): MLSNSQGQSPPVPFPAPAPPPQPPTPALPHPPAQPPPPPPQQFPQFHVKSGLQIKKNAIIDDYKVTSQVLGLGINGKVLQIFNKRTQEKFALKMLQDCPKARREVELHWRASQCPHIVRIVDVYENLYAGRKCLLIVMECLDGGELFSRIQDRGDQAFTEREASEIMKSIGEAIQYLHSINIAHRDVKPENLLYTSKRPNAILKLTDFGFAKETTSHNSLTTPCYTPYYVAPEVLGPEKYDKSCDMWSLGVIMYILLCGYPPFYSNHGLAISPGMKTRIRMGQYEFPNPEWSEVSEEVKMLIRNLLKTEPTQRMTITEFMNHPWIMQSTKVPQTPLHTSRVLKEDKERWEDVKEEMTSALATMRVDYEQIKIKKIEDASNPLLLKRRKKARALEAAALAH
smiles,measurement,setting,value
"ON=C1CCCc2c1[nH]c1ccc(C(F)(F)F)cc21 [6-(trifluoromethyl)-2,3,4,9-tetrahydro-1H-carbazol-1-one oxime]",pIC50,[1]; [6],> 3.70
"O=C1NCCc2[nH]c3c(ccc4cnccc43)c21 [Compound 1, 8,9,10,11-tetrahydro-7H-py-rido[3′,4′:4,5]pyrrolo[2,3-f]isoquinolin-7-one trifluoroacetate]",pIC50,[2]; [7],6.07
O/N=C1\CCCc2c1[nH]c1ccc(Br)cc21 [Compound 14],pIC50,[2]; [7],4.82
same,pIC50,[1],5.15
"COc1ccc2[nH]c3c(c2c1)CCC(C)/C3=N/O (stereo not shown) [Compound 19, 6-methoxy-2-methyl-2,3,4,9-tetrahydro-1H-car-bazol-1-one oxime]",pIC50,[2]; U937 cells,4.00 and 4.02
"O=C1NCCc2c1[nH]c1ccc(CCc3ccccc3)cc21 [Compound 42, 6-(2-phenylethyl)-2,3,4,9-tetra-hydro-1H-beta-car-bolin-1-one]",pIC50,[1],< 3.70
"COC(=O)c1cccc2c3c([nH]c12)CCNC3=O [Example 6, methyl 1-oxo-2,3,4,5-tetrahydro-1H-pyrido[4,3-b]indole-6-carboxylate]",pIC50,[1]; [6],> 4.70
C[S+]([O-])c1ccc(-c2nc(-c3ccncc3)c(-c3ccc(F)cc3)[nH]2)cc1 (stereo not shown) [SB203580],mortality,[3],reduce mortality
same,development of mouse collagen-induced arthritis,[4],inhibit the development
same,development of rat adjuvant arthritis,[5],inhibit the development

# Source: patent US20050143371A1, “Beta-carboline compounds and analogues thereof as mitogen-activated protein kinase-activated protein kinase-2 inhibitors” (Pharmacia Corporation, priority 2003, published 2005)
